# Test results reported in ChEMBL document CHEMBL1201862, “PubChem BioAssay data set” (2004).
# Activity calls are given as the source filed them.
# Legend:
# [1] = biological target: T1, Small ubiquitin-related modifier 1 (Homo sapiens, UniProt P63165); assay: inhibitors of SUMO1 partner interactions, dose response, biochemical, FRET (AID 624383); assay type: functional; settings: read-out: IC50_Mean
# [2] = biological target: T2, Estrogen receptor (Homo sapiens, UniProt P03372);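 also: potency for inhibiting coactivator peptide recruitment to the receptor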
# T2 sequence (P03372 whole entry): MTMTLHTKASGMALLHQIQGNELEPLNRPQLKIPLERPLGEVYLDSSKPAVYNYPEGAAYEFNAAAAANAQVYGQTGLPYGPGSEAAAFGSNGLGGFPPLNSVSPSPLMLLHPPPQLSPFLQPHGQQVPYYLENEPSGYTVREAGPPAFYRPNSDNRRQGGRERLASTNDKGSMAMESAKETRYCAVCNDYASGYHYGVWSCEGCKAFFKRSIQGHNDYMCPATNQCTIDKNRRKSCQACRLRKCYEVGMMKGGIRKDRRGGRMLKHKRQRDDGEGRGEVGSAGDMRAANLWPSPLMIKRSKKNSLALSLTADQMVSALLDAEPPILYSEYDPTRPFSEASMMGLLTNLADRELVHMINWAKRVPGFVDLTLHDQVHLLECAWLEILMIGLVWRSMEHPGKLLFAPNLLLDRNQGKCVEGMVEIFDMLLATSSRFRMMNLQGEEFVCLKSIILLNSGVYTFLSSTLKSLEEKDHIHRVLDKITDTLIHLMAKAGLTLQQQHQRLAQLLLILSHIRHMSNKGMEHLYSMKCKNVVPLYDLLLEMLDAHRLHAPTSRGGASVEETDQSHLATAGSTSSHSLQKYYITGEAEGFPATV
# [3] = biological target: T1, Small ubiquitin-related modifier 1; assay: inhibitors of SUMO1 peptide binding, dose response, biochemical, fluorescence polarization, uHTS hits (AID 624382); assay type: functional; settings: read-out: IC50_Mean
# [4] = CRF-BP/CRF-R2 complex antagonists, dose response, cell-based, uHTS hits, 384-well (AID 651639); assay type: functional, Homo sapiens; settings: read-out: IC50_Mean
# [5] = biological target: T3, Corticotropin-releasing factor receptor 2/Corticotropin-releasing factor-binding protein (Homo sapiens, UniProt P24387+Q13324); assay: Dose Response confirmation of uHTS hits for small molecule antagonists of the CRF-binding protein and CRF-R2 receptor complex.; assay type: functional; settings: read-out: IC50_Mean
# T3 sequence (Q13324 whole entry): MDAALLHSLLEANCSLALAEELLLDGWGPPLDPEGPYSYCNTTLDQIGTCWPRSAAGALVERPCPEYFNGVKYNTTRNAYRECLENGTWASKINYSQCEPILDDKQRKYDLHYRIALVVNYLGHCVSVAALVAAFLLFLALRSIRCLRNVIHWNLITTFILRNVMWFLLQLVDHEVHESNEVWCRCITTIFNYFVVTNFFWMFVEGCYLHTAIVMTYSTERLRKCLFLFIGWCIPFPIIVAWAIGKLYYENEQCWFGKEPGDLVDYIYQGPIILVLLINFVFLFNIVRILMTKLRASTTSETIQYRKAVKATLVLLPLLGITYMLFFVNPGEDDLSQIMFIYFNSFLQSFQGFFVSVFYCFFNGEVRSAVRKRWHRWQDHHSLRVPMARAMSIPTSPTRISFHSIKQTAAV
# T3 sequence (P24387 whole entry): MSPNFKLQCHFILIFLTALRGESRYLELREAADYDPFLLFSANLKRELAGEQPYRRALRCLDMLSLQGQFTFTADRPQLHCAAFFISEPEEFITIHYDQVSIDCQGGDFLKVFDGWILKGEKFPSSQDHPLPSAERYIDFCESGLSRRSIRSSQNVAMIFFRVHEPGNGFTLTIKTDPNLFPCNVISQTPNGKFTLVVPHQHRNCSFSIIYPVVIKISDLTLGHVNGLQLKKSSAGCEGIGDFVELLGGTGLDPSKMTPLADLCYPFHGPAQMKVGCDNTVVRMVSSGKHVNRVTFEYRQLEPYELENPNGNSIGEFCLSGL
# [6] = biological target: T3, Corticotropin-releasing factor receptor 2/Corticotropin-releasing factor-binding protein; assay: activators of CRF receptor 2 with binding protein – uHTS hits, confirmation (AID 602473); assay type: functional; settings: read-out: EC50_Mean
# T1 sequence (P63165 whole entry): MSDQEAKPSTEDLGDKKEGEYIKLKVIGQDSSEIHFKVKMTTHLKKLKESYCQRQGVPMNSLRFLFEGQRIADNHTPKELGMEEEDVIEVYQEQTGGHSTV
IC50 [4],IC50 [5],EC50 [6],Structure (SMILES),IC50 [1],IC50 [2],IC50 [3]
–,–,–,Cc1ccc(-n2nnnc2SCC(=O)Nc2ccc3c(c2)COC3=O)cc1C,8.2 µM (active),27.1 µM (active),> 66.6 µM (inactive)
> 20 µM (inactive),6.02 µM (active),> 53 µM (inactive),Cc1cc(C)cc(N(C(=O)c2nsc(Cl)c2Cl)C(C(=O)NC2CCCC2)c2ccc(O)cc2)c1 (stereo unspecified),–,–,–
